We go through five compounds from DBAASP.

Some test systems named below: Candida albicans; Micrococcus luteus A270; Escherichia coli SBS 363; Bacillus thuringiensis; Candida albicans MDM8; Pseudomonas aeruginosa 9; Bacillus subtilis 168; Pseudomonas aeruginosa; Escherichia coli B; Escherichia coli ST131; Staphylococcus aureus; Escherichia coli ML-35p; Candida albicans 820.
Assay in all cases: ≥ marks a high value that may be exact or a test limit, other limits are often not marked, values filed in µg/mL are converted to µM
Experiment [1] relates to Bacillus subtilis CCT 2471.
For experiment [2], the system named is Salmonella enterica subsp. arizonae ATCC 13314.
The test system of experiment [3] is Escherichia coli CCT 1371.
Experiment [4] has as its system Escherichia coli ATCC 25922.
In experiment [5] the test system is Bacillus subtilis ATCC 6633.
Experiment [6] deals with Alcaligenes faecalis ATCC 8750.
Experiment [7] has as its system Klebsiella pneumoniae ATCC 13883.
Experiment [8] concerns Pseudomonas aeruginosa ATCC 27853.
The subject of experiment [9] is Staphylococcus aureus CCT 6538.
In experiment [10] the test system is Staphylococcus saprophyticus.
In experiment [11] the test system is Staphylococcus aureus C623.
Experiment [12] has as its system Pseudomonas aeruginosa LES400.
The subject of experiment [13] is Enterobacter cloacae 218R.
Experiment [14] has as its system Pseudomonas aeruginosa H1030.
Experiment [15] deals with Enterococcus faecium t62764.
Experiment [16] relates to Pseudomonas aeruginosa 198.
In experiment [17] the test system is Staphylococcus aureus ATCC 25923.
In experiment [18] the test system is Enterococcus faecalis W61950.
In experiment [19] the test system is Pseudomonas aeruginosa H1027.
Experiment [20] deals with Enterococcus faecium mic80.
The subject of experiment [21] is Klebsiella pneumoniae ESBL 61962.
Experiment [22] concerns Enterococcus faecalis ATCC 29212.
The subject of experiment [23] is Escherichia coli ESBL 64771.
Experiment [24] concerns Klebsiella pneumoniae ESBL 63575.
In experiment [25] the test system is Stenotrophomonas maltophilia ATCC 13637.
Experiment [26] has as its system Escherichia coli ESBL 63103.
The test system of experiment [27] is Pseudomonas aeruginosa 213.
For experiment [28], the system named is Enterococcus faecalis f43559.
Experiment [29] concerns Pseudomonas aeruginosa PAO1 H103.
For experiment [30], the system named is Klebsiella pneumoniae ST258.
In experiment [31] the test system is Listeria monocytogenes EGD.
Experiment [32] relates to Salmonella enterica subsp. enterica serovar Typhimurium ATCC 14028.
For experiment [33], the system named is Staphylococcus epidermidis ATCC 12228.
The subject of experiment [34] is Staphylococcus aureus ATCC 6538P.
For experiment [35], the system named is Shigella dysenteriae ATCC 9752.
Experiment [36] relates to Micrococcus luteus ATCC 10240.
The subject of experiment [37] is Klebsiella pneumoniae ATCC 10031.
Experiment [38] deals with Staphylococcus aureus TK784.

Each structure is given as a SMILES string. Converted amounts (≈) assume the structure as drawn. “And” between values parts separate entries of the source, which are not always exact repeats. Equal entries are not always repeated.

On to `CC[C@H](C)[C@H](NC(=O)[C@H](CC(C)C)NC(=O)[C@H](CO)NC(=O)[C@H](CC(C)C)NC(=O)[C@H](CC(C)C)NC(=O)[C@@H](N)CO)C(=O)N[C@@H](CCCN=C(N)N)C(=O)N[C@@H](CCCCN)C(=O)N[C@@H](CC(C)C)C(=O)N[C@H](C(=O)N[C@H](C(N)=O)[C@@H](C)O)[C@@H](C)CC` [SLLSLIRKLIT], for which the minimal inhibitory concentration (MIC) in experiment [1] is 8 µM (≈ 10 µg/mL); in experiment [2], 25 µM (≈ 31.4 µg/mL); against Candida albicans it was 20 µM (≈ 25.1 µg/mL); in [3] it was 20 µM (≈ 25.1 µg/mL); in experiment [4], 40 µM (≈ 50.2 µg/mL); in [5] it was 6.2 µM (≈ 7.78 µg/mL). In addition, the MIC in the experiment on Micrococcus luteus A270 was 0.8 µM (≈ 1 µg/mL); in [6], at least 40 µM; in experiment [7], at least 40 µM; in [8] it was 1.6 µM (≈ 2.01 µg/mL); against Escherichia coli SBS 363 it was 1.6 µM (≈ 2.01 µg/mL); in [9] it was 4 µM (≈ 5.02 µg/mL). The values for the MIC (against Bacillus thuringiensis; in experiment [10]; with Candida albicans MDM8) were 20 µM (≈ 25.1 µg/mL), 20 µM (≈ 25.1 µg/mL) and 0.8 µM (≈ 1 µg/mL), respectively.

Take `CC[C@H](C)[C@H](NC(=O)[C@H](C)N)C(=O)N[C@@H](CCCN=C(N)N)C(=O)N[C@@H](CCCN=C(N)N)C(=O)N[C@@H](Cc1c[nH]c2ccccc12)C(=O)N[C@@H](CCCN=C(N)N)C(=O)N[C@H](C(=O)N[C@@H](CCCN=C(N)N)C(=O)N[C@@H](CCCCN)C(=O)O)[C@@H](C)CC` [AIRRWRIRK]: the MIC in experiment [11] was at least 34.3 µM; against Pseudomonas aeruginosa 9 it was at least 137 µM; in [12] it was at least 137 µM; in experiment [13], at least 68.6 µM; in experiment [14], at least 137 µM; in experiment [15], 8.77 µM (≈ 11 µg/mL). Moreover, the MIC in experiment [16] is at least 137 µM; in [17] it was 34.3 µM (≈ 43 µg/mL); in experiment [18], at least 137 µM; in experiment [19], at least 137 µM; in experiment [20], at least 68.6 µM; in experiment [21] it was at least 137 µM. The MIC is over 137 µM in experiment [22]; at least 68.6 µM in [23]; at least 137 µM in experiment [24]; at least 68.6 µM in [25]; at least 68.6 µM in experiment [26]; at least 137 µM in [27]. Besides, the minimum inhibitory concentration (MIC) in experiment [28] and in experiment [29] was at least 137 µM throughout.

Consider `CC[C@H](C)[C@H](NC(=O)[C@H](CC(C)C)NC(=O)[C@H](CCCCN)NC(=O)CNC(=O)[C@H](CC(C)C)NC(=O)[C@@H](NC(=O)[C@H](CCCCN)NC(=O)[C@H](CCCCN)NC(=O)[C@H](Cc1c[nH]c2ccccc12)NC(=O)[C@H](CCCCN)NC(=O)CN)[C@@H](C)CC)C(=O)N[C@@H](CCCN=C(N)N)C(N)=O` [GKWKKILGKLIR], for which the MIC was 1.3 µM (≈ 1.87 µg/mL) against Bacillus subtilis 168; 14.2 µM (≈ 20.4 µg/mL) against Pseudomonas aeruginosa; 2 µM (≈ 2.88 µg/mL) in experiment [4]; at least 32 µM in [30]; 1.8 µM (≈ 2.59 µg/mL) against Escherichia coli B; 2 µM (≈ 2.88 µg/mL) in the experiment on Escherichia coli ST131. The MIC against Staphylococcus aureus turned out to be 60 µM (≈ 86.3 µg/mL).

As for `CC[C@H](C)[C@@H]1NC(=O)[C@H](CCCN=C(N)N)NC(=O)[C@@H]2CSSC[C@@H]3NC(=O)[C@H](C(C)C)NC(=O)CNC(=O)[C@H](Cc4ccccc4)NC(=O)[C@H](Cc4ccc(O)cc4)NC(=O)[C@H](C(C)C)NC(=O)[C@H](CCC(=O)O)NC(=O)[C@H](CC(C)C)NC(=O)CNC(=O)[C@H](CC(C)C)NC(=O)[C@H](CSSC[C@H](NC(=O)[C@H](CCCN=C(N)N)NC(=O)[C@H](CCCN=C(N)N)NC(=O)[C@H](C)NC(=O)[C@H](CC(C)C)NC(=O)[C@H](CCCN=C(N)N)NC(=O)CNC(=O)[C@H](Cc4cnc[nH]4)NC(=O)[C@H](CC(C)C)NC(=O)[C@H](Cc4ccccc4)NC3=O)C(=O)N[C@H](C(=O)N[C@@H](CCCN=C(N)N)C(=O)O)CSSC[C@H](NC(=O)[C@@H](NC(=O)[C@H](CCCN=C(N)N)NC(=O)[C@@H](N)CCCN=C(N)N)[C@@H](C)CC)C(=O)N[C@@H](CCCN=C(N)N)C(=O)N2)NC(=O)[C@H](CCCN=C(N)N)NC(=O)CNC1=O` [RRICRCRIGRCLGLEVYFGVCFLHGRLARRCCR], the minimum inhibitory concentration (MIC) in experiment [31] is 1.3 µM and 1.8 µM; with Escherichia coli ML-35p it was 1.6 µM and 3.5 µM; in the experiment on Candida albicans 820 it was 2.3 µM and 4.5 µM.

For `CC(C)C[C@H](NC(=O)[C@H](CC(C)C)NC(=O)[C@H](CCCCN)NC(=O)[C@H](CCCCN)NC(=O)[C@H](CC(C)C)NC(=O)[C@H](Cc1c[nH]c2ccccc12)NC(=O)[C@H](CCCCN)NC(=O)[C@H](CC(C)C)NC(=O)[C@@H](N)CC(C)C)C(=O)N[C@@H](CCCCN)C(=O)N[C@@H](CCCCN)C(N)=O` [LLKWLKKLLKK], the MIC in experiment [32] is 2.84 µM (≈ 4 µg/mL); in experiment [33] it was 1.42 µM (≈ 2 µg/mL); in experiment [34] it was 1.42 µM (≈ 2 µg/mL); in experiment [4], 2.84 µM (≈ 4 µg/mL); in experiment [5], 1.42 µM (≈ 2 µg/mL); in experiment [35], 1.42 µM (≈ 2 µg/mL). Further, the MIC was 2.84 µM (≈ 4 µg/mL) in [36], 2.84 µM (≈ 4 µg/mL) in experiment [8], 2.84 µM (≈ 4 µg/mL) in experiment [37] and 11.3 µM (≈ 16 µg/mL) in experiment [38].
